{"source": "patent US10736927B2", "about": "“Pharmaceutical compositions for preventing or treating inflammatory bowel diseases” (INSERM (INSTITUT NATIONAL DE LA SANTE ET DE LA RECHERCHE …, priority 2015, dated 2020)", "key": {"Card9−/−→GF mice": {"tested_on": "Card9−/−→GF mice", "test": "DSS-induced colitis in Card9−/−→GF mice supplemented with three Lactobacillus strains", "type": "in vivo", "settings": "antagonist 100 μg/mouse i.p. three times per week, data not shown", "method": "To induce colitis, mice were administered drinking water supplemented with 2% (wt./vol.) dextran sulfate sodium (DSS; MP Biomedicals, LLC, Aurora, Ohio, USA) for 7 days and were then allowed to recover by drinking unsupplemented water for the next 5 days. The 6-formylindolo(3,2-b)carbazole (Ficz; Enzo Life Sciences, Lausen, Switzerland) and the AHR antagonist CH223191 (AHR; Sigma-Aldrich) were resuspended in dimethyl sulfoxide (DMSO; Sigma-Aldrich) and administered intraperitoneally. Ficz was injected 1 day after DSS administration (1 μg/mouse). For the AHR treatment, WT→GF and Card9−/−→GF mice (4- to 5-week-old females) were treated (100 μg/mouse) three times per week until euthanization. Controls consisted of mice injected with DMSO vehicle alone for the Ficz and AHR treatment groups. […] The resulting sequences were aligned, inspected by eye, and compared with the online tool BLAST. Strains were identified based on the highest hit scores. These strains were deposited in the Collection Nationale de Cultures de Microorganismes (CNCM) of the Institut Pasteur and named L. murinus CNCM I-5020, L. reuteri CNCM I-5022, and L. taiwanensis CNCM I-5019. […] In all treatments, body weight, blood in stool, and stool consistency were analyzed daily. The severity of colitis was assessed using the disease activity index (DAI) as previously described (6)."}, "[1]": {"tested_on": "DSS-exposed MWT and MCard9−/− mice", "test": "DSS-induced colitis with antifungal treatment in MWT and MCard9−/− mice", "type": "in vivo, mouse", "settings": "fluconazole 0.5 mg/ml in drinking water from 1 week before DSS", "method": "(§1) To induce colitis, the mice were administered drinking water supplemented with 2% (w/v) dextran sulfate sodium (DSS; MP Biomedicals, LLC, Aurora, Ohio, USA) for 7 days, and then allowed to recover by drinking unsupplemented water for the next 5 days (FIG. 7 a). 6-formylindolo[3,2-b]carbazole (Ficz) was obtained from Enzo Life Sciences (Lausen, Switzerland) resuspended in dimethyl sulfoxide (DMSO; Sigma-Aldrich) and was administered intraperitoneally 1 day after DSS administration (1 μg/mouse). Controls consisted of mice injected with DMSO vehicle alone. For the antifungal treatment, mice were fed 0.5 mg/ml fluconazole in the drinking water (Sigma-Aldrich) 1 week before DSS administration and every day thereafter, as previously described^18. Body weight, gross blood, and stool consistency were analyzed daily. The severity of colitis was assessed using the disease activity index (DAI) as previously described (6)."}, "[2]": {"tested_on": "DSS-exposed MCard9−/− mice", "test": "DSS-induced colitis with Ficz injection in microbiota-colonized germ-free mice", "type": "in vivo", "settings": "Ficz 1 μg/mouse i.p. 1 day after DSS; Ficz-treated MCard9−/− mice vs non-treated counterparts during recovery", "method": "Fresh stool samples from WT or Card9^−/− mice were immediately transferred to an anaerobic chamber, in which the stool samples were suspended and diluted 1:100 in LYHBHI medium (BD Difco, Le Pont De Claix, France) supplemented with cellobiose (1 mg/ml; Sigma-Aldrich, St. Louis, Mo., USA), maltose (1 mg/ml; Sigma-Aldrich), and cysteine (0.5 mg/ml; Sigma-Aldrich). Four- to five-week-old WT germ-free mice were randomly assigned to two groups and inoculated via oral gavage with 400 μl of fecal suspension from the conventional wild-type (MWT) or Card9^−/− (MCard9^−/−) mice and maintained in separated isolators. One aliquot of each fecal suspension was stored at −80° C. […]\nTo induce colitis, the mice were administered drinking water supplemented with 2% (w/v) dextran sulfate sodium (DSS; MP Biomedicals, LLC, Aurora, Ohio, USA) for 7 days, and then allowed to recover by drinking unsupplemented water for the next 5 days (FIG. 7 a). […] Body weight, gross blood, and stool consistency were analyzed daily. The severity of colitis was assessed using the disease activity index (DAI) as previously described (6).\nColon samples for histological studies were maintained at 4° C. in 4% paraformaldehyde and then embedded in paraffin. […] The number of cleaved caspase-3-positive cells in 100 μm of analyzed colon was counted. Ki67 was quantified as a percentage of the total height of each crypt. […]"}, "[3]": {"tested_on": "cytokines secreted by colon explants", "test": "Cytokines secreted by colon explants (ELISA) of DSS-exposed mice treated with Ficz", "type": "in vivo, mouse", "method": "as §1\nMLNs and spleens were sieved through a 70-μm cell strainer (BD, Le Pont De Claix, France) in complete RPMI 1640 medium (10% heat-inactivated fetal calf serum, 2 mM L-glutamine, 50 IU/ml penicillin, and 50 μg/ml streptomycin; Sigma-Aldrich), and 1×10^6 cells per well were cultured (37° C., 10% CO2) for 48 h with stimulation by phorbol 12-myristate 13-acetate (PMA, 50 ng/ml; Sigma-Aldrich) and ionomycin (1 μM; Sigma-Aldrich). The culture supernatant was frozen at −80° C. until processing. To measure the cytokine levels in the colonic explants, tissues from the medium colon were isolated and rinsed in phosphate buffered saline (PBS; Gibco, Paisley, United Kingdom). The colonic explants were cultured (37° C., 10% CO2) overnight in 24-well tissue culture plates (Costar, Corning, Amsterdam, The Netherlands) in 1 ml of complete RPMI 1640 medium. The culture supernatants were collected and stored at −80° C. until processing. ELISAs were performed on the supernatants to quantify mouse cytokines according to the manufacturer's instructions: IL10, IL17A, and IFNγ (Mabtech, Nacka Strand, Sweden); IL22 (eBioscience, San Diego, Calif., USA); and IL6 (R&D Systems, Minneapolis, Minn., USA). For the colonic explants, cytokine concentrations were normalized according to the dry weight of each colonic explant."}, "[4]": {"tested_on": "Il22, RegIIIγ, RegIIIβ, Il17A transcript expression in colon", "test": "Colon transcript expression by qRT-PCR in DSS-exposed mice treated with Ficz", "type": "in vivo, mouse", "method": "as §1\nTotal RNA was isolated from colon samples using an RNeasy Mini Kit (Qiagen, Hilden, Germany), according to the manufacturer's instructions. Quantitative RT-PCR was performed using SuperScript II Reverse Transcriptase (Life Technologies, Saint Aubin, France) and then a Takyon SYBR Green PCR kit (Eurogentec, Liege, Belgium) in a StepOnePlus apparatus (Applied Biosystems, Foster City, Calif., USA) with specific mouse oligonucleotides. We used the 2^−ΔΔCt quantification method with mouse Gapdh as an endogenous control and the WT or MWT group as a calibrator."}, "AhR": {"tested_on": "AhR", "test": "AhR activation luciferase reporter assay in H1L1.1c2 cells", "type": "cell-based, mouse", "settings": "bacterial culture supernatant, relative to culture media (FIG. 13a)", "method": "The H1L1.1c2 cell line containing a stably integrated DRE-driven firefly luciferase reporter plasmid pGudLuc1.1 was provided by Michael S. Denison (University of California, Davis, Calif., USA) and has been described previously (47, 48). The cells were seeded in 96-well plates at 7.5×10^4 cells/well in 100 μl of complete DMEM medium (10% heat-inactivated fetal calf serum, 50 IU/ml penicillin, and 50 μg/ml streptomycin; Sigma-Aldrich) and cultured (37° C., 10% CO2) for 24 h prior to treatment. Fresh stools from healthy and IBD patients in remission and from WT, Card9^−/−, MWT, MCard9^−/−, Ido1^−/− and germ-free mice were collected, weighed and stored at −80° C. until processing. The stools were suspended, diluted to 100 mg/ml in PBS, centrifuged (5000 g, 15 min, 4° C.) and filtered (0.2 μm; VWR, Fontenay-sous-Bois, France). Lactobacillus and Bifidobacterium spp. were grown in MRS medium (BD Difco, Le Pont De Claix, France) supplemented with 10% cysteine (Sigma-Aldrich) at 37° C. under respectively aerobic and anaerobic conditions. Allobaculum stercoricanis (DSMZ 13633) was cultivated under the recommended culture condition listed in the DSMZ. Cultured supernatants of these bacteria were stored at −80° C. until processing. […] After adding 100 μl of Promega-stabilized luciferase reagent, the luciferase activity was measured using a luminometer. […]"}, "[5]": {"settings": "Ficz-treated vs non-treated MCard9−/− mice"}, "[6]": {"settings": "defect in MCard9−/− mice, Ficz 1 μg/mouse i.p."}}, "data": [{"compound": "Cc1ccccc1N=Nc1ccc(NC(=O)c2ccnn2C)c(C)c1", "note": "[AHR antagonist, CH223191]", "values": [{"measurement": "effects of the three Lactobacillus strains in the presence of an AHR antagonist", "setting": "Card9−/−→GF mice", "result": "abrogated"}]}, {"compound": "OC(Cn1cncn1)(Cn1cncn1)c1ccc(F)cc1F", "note": "[antifungal, fluconazole]", "values": [{"measurement": "colitis phenotype (weight loss and DAI) of MCard9−/− vs MWT mice", "setting": "[1]", "result": "did not modify the phenotype"}]}, {"compound": "O=Cc1c2c(cc3c1=Nc1ccccc1-3)=Nc1ccccc1-2", "note": "[Ficz, 6-formylindolo[3,2-b]carbazole]", "values": [{"measurement": "colitis severity (body weight loss, histology score, colon shortening)", "setting": "[2]", "result": "weaker colitis severity"}, {"measurement": "IFNgamma in the colon", "setting": "[3]; [5]", "result": "No significant differences"}, {"measurement": "IL6 in the colon", "setting": "[3]; [5]", "result": "No significant differences"}, {"measurement": "IL10 in the colon", "setting": "[3]; [5]", "result": "No significant differences"}, {"measurement": "Il17 production", "setting": "[3]; colon explants cultured 24 h, Ficz treatment", "result": "not altered"}, {"measurement": "Il17 expression", "setting": "[4]; colon, Ficz treatment", "result": "not altered"}, {"measurement": "Il22 colonic expression", "setting": "[4]; [6]", "result": "rescued"}, {"measurement": "RegIIIβ colonic expression", "setting": "[4]; [6]", "result": "rescued"}, {"measurement": "RegIIIγ colonic expression", "setting": "[4]; [6]", "result": "rescued"}]}, {"compound": "Lactobacillus reuteri", "values": [{"measurement": "AhR activation by cultured supernatants", "setting": "AhR", "result": "strongly activate AhR"}]}]}
